Assay results reported in patent publication US12054487B2, “Muscarinic acetylcholine M1 receptor antagonists” (Contineum Therapeutics, Inc., priority 2018, dated 2024).

Legend:
Assay type in all cases: cell-based
human M1 receptor = molecular target: T1, human M1 receptor (Homo sapiens, UniProt P11229); test: In vitro functional assay of muscarinic acetylcholine receptor activity (aequorin calcium flux, antagonist mode vs EC80 acetylcholine), M1; settings: CHO-K1 cells stably expressing human M1 receptor with Aequorin; decrease in EC80 acetylcholine response
T1 construct: host or cells: CHO-K1
T1 sequence (P11229 1-460): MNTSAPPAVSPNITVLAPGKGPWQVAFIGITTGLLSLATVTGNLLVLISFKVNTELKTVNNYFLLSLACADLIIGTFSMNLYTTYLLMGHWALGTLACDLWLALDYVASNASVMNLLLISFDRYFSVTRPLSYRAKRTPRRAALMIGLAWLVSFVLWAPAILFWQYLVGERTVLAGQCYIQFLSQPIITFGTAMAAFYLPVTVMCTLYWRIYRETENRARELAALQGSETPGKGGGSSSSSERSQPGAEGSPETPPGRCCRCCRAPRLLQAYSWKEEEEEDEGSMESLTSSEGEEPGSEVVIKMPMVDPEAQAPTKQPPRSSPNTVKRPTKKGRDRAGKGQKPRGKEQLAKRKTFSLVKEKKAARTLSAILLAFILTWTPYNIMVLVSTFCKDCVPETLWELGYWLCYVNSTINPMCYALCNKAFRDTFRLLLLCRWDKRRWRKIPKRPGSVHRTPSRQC
Description: (§1) CHO-K1 cells stably expressing human M1 receptor with Aequorin (Perkin Elmer) were grown in F12 media, 10% FBS with 0.4 mg/mL geneticin and […]. Cells were grown to confluence and frozen down to be assayed at a later date. On the day of the experiment cells were thawed in a 37° C. water bath, resuspended in DMEM/HAM's F12 with HEPES (Invitrogen)+0.1% protease-free BSA (assay buffer), and spun down to remove freezing media. After centrifugation, supernatant was removed and 12 mL of assay buffer was added. Coelenterazine h (Promega) was added to the cells at a final concentration of 5 uM and incubated for 4 hours at room temperature in the dark. Compound master plate-96 deep well (Corning) were formatted in a 8-point DRC in assay buffer with 0.2% DMSO at a starting concentration of 60 uM (2×). After 4 hours of incubation, cells were plated at a concentration of 5×10^5 cells/well in 96 well white-walled, tissue culture-treated, clear-bottom plates (VWR). Compounds were added to the daughter plate, and cells plus compound were incubated at room temperature for 30 minutes in the dark.
(§2) Calcium flux was measured using the FlexStation 3 (Molecular Devices). To measure the antagonist dose-response, the EC80 of Acetylcholine was injected to the daughter plate using the automated compound transfer function of the Flex Station, and the increase in luminescence was measured over time. Antagonist activity was analyzed as a concentration dependent decrease in the EC80 acetylcholine response. Dose response curves were generated using Prism (GraphPad Software). The IC50 of the compounds was calculated from the dose response curve.

M3 = M3 (Homo sapiens, UniProt P20309); test: In vitro functional assay of muscarinic acetylcholine receptor activity, M3; settings: antagonist activity; M3 method not separately described
Description: [The procedure below names another target; the source lists this target under the same test.] as §1, §2

M2 = molecular target: T2, M2 (Homo sapiens, UniProt P08172); test: In vitro functional assay of muscarinic acetylcholine receptor activity, M2; settings: antagonist activity; M2 method not separately described
T2 sequence (P08172 1-466): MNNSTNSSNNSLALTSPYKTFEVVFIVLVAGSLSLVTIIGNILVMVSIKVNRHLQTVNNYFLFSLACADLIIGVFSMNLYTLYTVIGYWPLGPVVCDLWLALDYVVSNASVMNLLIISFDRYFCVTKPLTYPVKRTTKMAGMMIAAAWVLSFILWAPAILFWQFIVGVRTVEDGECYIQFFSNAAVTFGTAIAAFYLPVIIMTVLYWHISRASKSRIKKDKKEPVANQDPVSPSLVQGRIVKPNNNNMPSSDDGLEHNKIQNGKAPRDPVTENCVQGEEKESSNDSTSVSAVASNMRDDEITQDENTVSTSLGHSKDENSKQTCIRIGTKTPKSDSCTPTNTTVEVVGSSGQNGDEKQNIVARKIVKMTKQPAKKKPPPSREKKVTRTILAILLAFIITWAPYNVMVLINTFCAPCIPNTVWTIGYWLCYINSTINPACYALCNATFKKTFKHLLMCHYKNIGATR
Description: [The procedure below names another target; the source lists this target under the same test.] as §1, §2

Chain of M3 (P20309 whole entry): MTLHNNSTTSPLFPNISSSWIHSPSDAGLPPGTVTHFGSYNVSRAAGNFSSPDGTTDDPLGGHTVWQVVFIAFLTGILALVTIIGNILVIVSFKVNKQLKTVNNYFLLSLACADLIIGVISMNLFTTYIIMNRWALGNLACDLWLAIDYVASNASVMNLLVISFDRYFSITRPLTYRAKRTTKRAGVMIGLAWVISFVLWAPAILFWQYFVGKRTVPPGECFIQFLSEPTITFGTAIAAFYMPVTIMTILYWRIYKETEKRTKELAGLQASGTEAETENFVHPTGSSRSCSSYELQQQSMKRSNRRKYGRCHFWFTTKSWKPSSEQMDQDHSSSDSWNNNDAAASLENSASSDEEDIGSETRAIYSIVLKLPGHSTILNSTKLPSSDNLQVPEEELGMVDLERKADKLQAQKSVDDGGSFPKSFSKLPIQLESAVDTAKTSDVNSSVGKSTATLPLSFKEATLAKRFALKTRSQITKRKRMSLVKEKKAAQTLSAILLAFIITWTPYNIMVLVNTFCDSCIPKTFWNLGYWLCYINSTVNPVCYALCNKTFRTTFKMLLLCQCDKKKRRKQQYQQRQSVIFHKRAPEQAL

IC50 (human M1 receptor)	IC50 (M3)	IC50 (M2)	SMILES
0.1 to 1 µM	> 10 µM	1 to 10 µM	O=C1C(CCCc2cccc3ncsc23)C[C@H]2CN(c3ccncc3F)CCN12 (mixture of isomers) [Example 9, (8aS)-7-(3-(benzo[d]thiazol-7-yl)propyl)-2-(3-fluoropyridin-4-yl)hexahydropyrrolo[1,2-a]pyrazin-6(2H)-one]
< 0.1 µM	1 to 10 µM	1 to 10 µM	O=C1C(CCCc2cccc3ncnn23)C[C@H]2CN(c3ccc(F)cn3)CCN12 (mixture of isomers) [Example 41, (7S,8aS)-7-(3-([1,2,4]triazolo[1,5-a]pyridin-5-yl)propyl)-2-(5-fluoropyridin-2-yl)hexahydropyrrolo[1,2-a]pyrazin-6(2H)-one]
> 10 µM	> 10 µM	1 to 10 µM	Cc1cc(N2CCN3C(=O)C(CCCc4cccc5ncnn45)C[C@H]3C2)ncc1F (mixture of isomers) [Example 42, (7S,8aS)-7-(3-([1,2,4]triazolo[1,5-a]pyridin-5-yl)propyl)-2-(5-fluoro-4-methylpyridin-2-yl)hexahydropyrrolo[1,2-a]pyrazin-6(2H)-one]
1 to 10 µM	1 to 10 µM	1 to 10 µM	Cc1ncc(N2CCN3C(=O)C(CCCc4cccc5ncnn45)C[C@H]3C2)cc1F (mixture of isomers) [Example 43, (7S,8aS)-7-(3-([1,2,4]triazolo[1,5-a]pyridin-5-yl)propyl)-2-(5-fluoro-6-methylpyridin-3-yl)hexahydropyrrolo[1,2-a]pyrazin-6(2H)-one]
1 to 10 µM	> 10 µM	1 to 10 µM	O=C1C(CCCc2cccc3ncnn23)C[C@H]2CN(c3cncc(Cl)c3)CCN12 (mixture of isomers) [Example 44, (8aS)-7-(3-([1,2,4]triazolo[1,5-a]pyridin-5-yl)propyl)-2-(5-chloropyridin-3-yl)hexahydropyrrolo[1,2-a]pyrazin-6(2H)-one]
< 0.1 µM	1 to 10 µM	1 to 10 µM	O=C1C(CCCc2cccc3ncnn23)C[C@H]2CN(c3ccc(C(F)F)cn3)CCN12 (mixture of isomers) [Example 46, (8aS)-7-(3-([1,2,4]triazolo[1,5-a]pyridin-5-yl)propyl)-2-(5-(difluoromethyl)pyridin-2-yl)hexahydropyrrolo[1,2-a]pyrazin-6(2H)-one]
< 0.1 µM	1 to 10 µM	1 to 10 µM	COc1ccc(N2CCN3C(=O)C(CCCc4cccn5ncnc45)C[C@H]3C2)nc1 (mixture of isomers) [Example 72, (7S,8aS)-7-(3-([1,2,4]triazolo[1,5-a]pyridin-8-yl)propyl)-2-(5-methoxypyridin-2-yl)hexahydropyrrolo[1,2-a]pyrazin-6(2H)-one]
0.1 to 1 µM	> 10 µM	1 to 10 µM	O=C1C(CCCc2cccc3ncsc23)CC2CN(c3ccncc3F)CCN12 (racemic) [Example 6, 7-(3-(benzo[d]thiazol-7-yl)propyl)-2-(3-fluoropyridin-4-yl)hexahydropyrrolo[1,2-a]pyrazin-6(2H)-one]
0.1 to 1 µM	> 10 µM	> 10 µM	O=C1C(CCCc2cccc3ncnn23)C[C@H]2CN(c3ccc(F)cn3)CCN12 (single isomer, unassigned) [Example 50]
> 10 µM	> 10 µM	> 10 µM	O=C1[C@H](CCCc2cccc3ncsc23)C[C@H]2CN(c3ccncc3F)CCN12 [Example 1, (7R,8aS)-7-(3-(benzo[d]thiazol-7-yl)propyl)-2-(3-fluoropyridin-4-yl)hexahydropyrrolo[1,2-a]pyrazin-6(2H)-one]
< 0.1 µM	1 to 10 µM	1 to 10 µM	O=C1[C@@H](CCCc2cccc3ncsc23)C[C@H]2CN(c3ccncc3F)CCN12 [Example 2, (7S,8a5)-7-(3-(benzo [d]thiazol-7-yl)propyl)-2-(3-fluoropyridin-4-yl)hexahydropyrrolo[1,2-a]pyrazin-6(2H)-one]
0.1 to 1 µM	1 to 10 µM	> 10 µM	O=C1[C@@H](CCCc2cccc3nccn23)C[C@H]2CN(c3ccncc3F)CCN12 [Example 3, (7S,8aS)-2-(3-fluoropyridin-4-yl)-7-(3-(imidazo[1,2-a]pyridin-5-yl)propyl)hexahydropyrrolo[1,2-a]pyrazin-6(2H)-one]
< 0.1 µM	0.1 to 1 µM	0.1 to 1 µM	N#Cc1ccc(N2CCN3C(=O)[C@@H](CCCc4cccc5ncnn45)C[C@H]3C2)nc1 [Example 4, 6-((7S,8aS)-7-(3-([1,2,4]triazolo [1,5-a]pyridin-5-yl)propyl)-6-oxohexahydropyrrolo [1,2-a]pyrazin-2(1H)-yl)nicotinonitrile]
0.1 to 1 µM	> 10 µM	1 to 10 µM	N#Cc1ccc(N2CCN3C(=O)[C@@H](CNCc4cccc5ncnn45)C[C@H]3C2)nc1 [Example 5, 6-((7R,8aS)-7-((([1,2,4]triazolo[1,5-a]pyridin-5-ylmethyl)amino)methyl)-6-oxohexahydropyrrolo[1,2-a]pyrazin-2(1H)-yl)nicotinonitrile]
1 to 10 µM	> 10 µM	1 to 10 µM	O=C1[C@@H](CCCc2cccc3ncsc23)C[C@@H]2CN(c3ccncc3F)CCN12 [Example 7, (7S,8aR)-7-(3-(benzo[d]thiazol-7-yl)propyl)-2-(3-fluoropyridin-4-yl)hexahydropyrrolo[1,2-a]pyrazin-6(2H)-one]
> 10 µM	> 10 µM	> 10 µM	O=C1[C@H](CCCc2cccc3ncsc23)C[C@@H]2CN(c3ccncc3F)CCN12 [Example 8, (7R,8aR)-7-(3-(benzo[d]thiazol-7-yl)propyl)-2-(3-fluoropyridin-4-yl)hexahydropyrrolo[1,2-a]pyrazin-6(2H)-one]
< 0.1 µM	1 to 10 µM	0.1 to 1 µM	N#Cc1ccc(N2CCN3C(=O)[C@@H](CCCc4cccc5ncsc45)C[C@H]3C2)nc1 [Example 10, 6-((7S,8aS)-7-(3-(benzo[d]thiazol-7-yl)propyl)-6-oxohexahydropyrrolo[1,2-a]pyrazin-2(1H)-yl)nicotinonitrile]
< 0.1 µM	0.1 to 1 µM	0.1 to 1 µM	N#Cc1cc(N2CCN3C(=O)[C@@H](CCCc4cccc5ncsc45)C[C@H]3C2)ccn1 [Example 11, 4-((7S,8aS)-7-(3-(benzo[d]thiazol-7-yl)propyl)-6-oxohexahydropyrrolo[1,2-a]pyrazin-2(1H)-yl)picolinonitrile]
0.1 to 1 µM	1 to 10 µM	1 to 10 µM	O=C1[C@@H](CCCc2cccc3ncsc23)C[C@H]2CN(c3ccnc(Cl)c3)CCN12 [Example 12]
< 0.1 µM	0.1 to 1 µM	0.1 to 1 µM	CS(=O)(=O)c1ccc(N2CCN3C(=O)[C@@H](CCCc4cccc5ncsc45)C[C@H]3C2)nc1 [Example 13, (7S,8aS)-7-(3-(benzo[d]thiazol-7-yl)propyl)-2-(5-(methylsulfonyl)pyridin-2-yl)hexahydropyrrolo[1,2-a]pyrazin-6(2H)-one]
0.1 to 1 µM	1 to 10 µM	1 to 10 µM	N#Cc1ccc(N2CCN3C(=O)[C@@H](CCCc4cccc5cncn45)C[C@H]3C2)nc1 [Example 14, 6-((7S,8aS)-7-(3-(imidazo[1,5-a]pyridin-5-yl)propyl)-6-oxohexahydropyrrolo[1,2-a]pyrazin-2(1H)-yl)nicotinonitrile]
